Data reported in patent US6525089B1, “Pharmaceutical composition containing decursin” (Binex Co., Ltd., priority 1998, dated 2003).

Test system: U-937 cells
Assay: NBT reduction test
Type: cell-based, human
Details: 1 × 10^−7M, incubated 4 days
Method: U-937 cells were plated on a cell culture dish at a concentration of 2×10^5 cells/ml in a medium containing 10^−7M decursin and incubated in a 5% CO2 incubator at 37° C.
In the nitrobluetetrazolium (NBT) reduction test, cell solution (about 1×10^6 cells/ml) was well stirred and pelleted by centrifugation at 2000 rpm for 5 minutes. The pellets were suspended in 0.5 ml of medium, followed by the addition of a mixing solution (0.5 ml) containing 10^−6M formyl-methionine leucine phenylalanine (fMLP) and NBT 1.0 mg/DPBSml (1:9). The mixture was incubated at 37° C. for 30 minutes. The reaction was stopped in ice bath and centrifuged at 2000 rpm for 5 minutes. The supernatant was removed and then 200 μl of DPBS was added. The solution was lightly swayed and checked under a microscope to observe a minimum number of 200 cells. The number of NBT (+) cells was calculated by percentage.
The differentiation was investigated by using the fact that the differentiated leukocyte cells may generate superoxide anion by stimulation. […] The cultured mixture, which was reacted with superoxide, was reduced to form a precipitate. Then NBT was added to the precipitate (Table 7).

CC(C)=CC(=O)O[C@H]1Cc2cc3ccc(=O)oc3cc2OC1(C)C [decursin]
NBT reduction test: positive cells: 43%
NBT reduction test: positive cells (listed as Decursin): 43.1 ± 4.0%
